Data published in patent US10758534B2 (Vertex Pharmaceuticals Incorporated, priority 2014, dated 2020).

Biological target: T1, F508del (Homo sapiens, UniProt P13569, DEL508-508)
T1 construct: expressed in transfected cells
Test: Protocol 1: membrane potential optical assay (FLIPR III, voltage sensing dye), identification of potentiator compounds
Assay type: cell-based
Settings: Table 3, compounds of Table 1
Summary of the method: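 Read-out: change in voltage-sensing dye fluorescence (FLIPR III) as a measure of F508del conductance. Temperature-corrected (27° C, 24 hrs) NIH 3T3 cells expressing F508del are pretreated with potentiators, dye-loaded, then stimulated with forskolin under a chloride ion gradient using chloride-free gluconate bath.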

T1 sequence (P13569 with tags, fused parts or gaps DEL508-508): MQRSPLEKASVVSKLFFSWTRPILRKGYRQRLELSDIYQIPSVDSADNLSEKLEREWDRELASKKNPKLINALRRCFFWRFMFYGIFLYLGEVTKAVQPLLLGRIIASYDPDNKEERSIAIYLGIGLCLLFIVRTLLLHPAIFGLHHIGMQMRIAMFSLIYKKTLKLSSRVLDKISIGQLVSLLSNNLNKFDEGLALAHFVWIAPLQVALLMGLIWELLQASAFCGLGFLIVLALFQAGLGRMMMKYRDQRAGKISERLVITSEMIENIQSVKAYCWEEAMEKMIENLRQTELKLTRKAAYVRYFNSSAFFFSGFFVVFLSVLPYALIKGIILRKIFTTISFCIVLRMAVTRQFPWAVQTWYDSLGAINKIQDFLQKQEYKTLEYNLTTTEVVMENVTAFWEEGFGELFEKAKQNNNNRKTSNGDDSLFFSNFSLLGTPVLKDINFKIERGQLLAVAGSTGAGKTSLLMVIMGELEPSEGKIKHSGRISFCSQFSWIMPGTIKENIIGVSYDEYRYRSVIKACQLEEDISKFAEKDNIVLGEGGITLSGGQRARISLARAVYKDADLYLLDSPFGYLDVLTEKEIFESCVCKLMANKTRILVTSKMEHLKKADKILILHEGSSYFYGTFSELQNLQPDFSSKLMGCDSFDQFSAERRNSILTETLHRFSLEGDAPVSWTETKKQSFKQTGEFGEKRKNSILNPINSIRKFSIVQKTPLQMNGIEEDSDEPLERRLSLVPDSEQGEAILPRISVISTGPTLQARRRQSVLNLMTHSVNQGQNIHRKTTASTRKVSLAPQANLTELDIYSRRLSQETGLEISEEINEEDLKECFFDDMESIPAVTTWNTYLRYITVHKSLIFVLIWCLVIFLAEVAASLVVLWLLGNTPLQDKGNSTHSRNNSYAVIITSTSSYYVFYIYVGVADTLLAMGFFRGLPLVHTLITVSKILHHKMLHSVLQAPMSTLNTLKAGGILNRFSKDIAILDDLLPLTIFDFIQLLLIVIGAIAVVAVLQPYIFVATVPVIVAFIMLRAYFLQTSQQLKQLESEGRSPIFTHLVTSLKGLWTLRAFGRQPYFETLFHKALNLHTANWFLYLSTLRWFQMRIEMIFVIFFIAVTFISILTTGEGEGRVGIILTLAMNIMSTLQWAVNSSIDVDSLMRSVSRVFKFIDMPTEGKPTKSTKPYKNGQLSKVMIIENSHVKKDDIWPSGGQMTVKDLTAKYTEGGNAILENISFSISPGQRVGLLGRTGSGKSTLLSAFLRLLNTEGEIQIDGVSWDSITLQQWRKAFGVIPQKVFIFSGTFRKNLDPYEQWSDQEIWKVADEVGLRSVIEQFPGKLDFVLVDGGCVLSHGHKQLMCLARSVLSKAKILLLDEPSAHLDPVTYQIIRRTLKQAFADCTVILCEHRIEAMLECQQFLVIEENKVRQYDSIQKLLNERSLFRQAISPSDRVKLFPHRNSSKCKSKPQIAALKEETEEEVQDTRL

Row | EC30 | Structure (SMILES)
1 | ++ (“++” means between 3 uM and 10 uM) | C[C@@H]1CN(c2nc(-c3cc(O)cc(F)c3)ccc2C(=O)NS(=O)(=O)c2cccc(N)n2)C(C)(C)C1 [Compound 1636, N-[(6-amino-2-pyridyl)sulfonyl]-6-(3-fluoro-5-hydroxy-phenyl)-2-[(4S)-2,2,4-trimethylpyrrolidin-1-yl]pyridine-3-carboxamide]
2 | +++ (“+++” means <3 uM) | Cc1cc(OC(C)C)nc(-c2ccc(C(=O)NS(=O)(=O)c3cccc(N)n3)c(N3C[C@@H](C)CC3(C)C)n2)c1 [Compound 1637, N-[(6-amino-2-pyridyl)sulfonyl]-6-(6-isopropoxy-4-methyl-2-pyridyl)-2-[(4S)-2,2,4-trimethylpyrrolidin-1-yl]pyridine-3-carboxamide]
3 | +++ (“+++” means <3 uM) | CC1(C)CN(c2ncc(C(F)(F)F)cc2C(=O)NS(=O)(=O)c2cccc(N)n2)C(C)(C)C1 [Compound 1638, N-[(6-amino-2-pyridyl)sulfonyl]-2-(2,2,4,4-tetramethylpyrrolidin-1-yl)-5-(trifluoromethyl)pyridine-3-carboxamide]
4 | +++ (“+++” means <3 uM) | CCOc1cccc2c1CN(Cc1c(C)cc(C)cc1C)C2(C)C(=O)NS(=O)(=O)c1ncccc1O (stereo not drawn) [Compound 1642, 4-ethoxy-N-[(3-hydroxy-2-pyridyl)sulfonyl]-1-methyl-2-[(2,4,6-trimethylphenyl)methyl]isoindoline-1-carboxamide]
5 | ++ (“++” means between 3 uM and 10 uM) | Cc1cc(C)c(Oc2nc(C3=CCNCC3)ccc2C(=O)NS(=O)(=O)c2cccc(N)n2)c(C)c1 [Compound 1643, N-[(6-amino-2-pyridyl)sulfonyl]-6-(1,2,3,6-tetrahydropyridin-4-yl)-2-(2,4,6-trimethylphenoxy)pyridine-3-carboxamide]
6 | +++ (“+++” means <3 uM) | Cc1ccc(OCC(C)(C)C)nc1-c1ccc(C(=O)NS(=O)(=O)c2cccc(N)n2)c(N2CC(C)CC2(C)C)n1 (stereo not drawn) [Compound 1645, N-[(6-amino-2-pyridyl)sulfonyl]-6-[6-(2,2-dimethylpropoxy)-3-methyl-2-pyridyl]-2-(2,2,4-trimethylpyrrolidin-1-yl)pyridine-3-carboxamide]
7 | +++ (“+++” means <3 uM) | CC1CN(c2nc(C(C)(C)C)c(C3=CC(C)(C)OC(C)(C)C3)cc2C(=O)NS(=O)(=O)c2cccc(N)n2)C(C)(C)C1 (stereo not drawn) [Compound 1647, N-[(6-amino-2-pyridyl)sulfonyl]-6-tert-butyl-5-(2,2,6,6-tetramethyl-3H-pyran-4-yl)-2-(2,2,4-trimethylpyrrolidin-1-yl)pyridine-3-carboxamide]
8 | ++ (“++” means between 3 uM and 10 uM) | CC(=O)N1CC=C(c2ccc(C(=O)NS(=O)(=O)c3cccc(N)n3)c(Oc3c(C)cc(C)cc3C)n2)CC1 [Compound 1649, 6-(1-acetyl-3,6-dihydro-2H-pyridin-4-yl)-N-[(6-amino-2-pyridyl)sulfonyl]-2-(2,4,6-trimethylphenoxy)pyridine-3-carboxamide]
9 | +++ (“+++” means <3 uM) | Cc1cc(C)c(Oc2nc(C3CC4CCC3(C)C4(C)C)ccc2C(=O)NS(=O)(=O)c2cccc(N)n2)c(C)c1 (stereo not drawn) [Compound 1650, N-[(6-amino-2-pyridyl)sulfonyl]-6-(1,7,7-trimethylnorbornan-2-yl)-2-(2,4,6-trimethylphenoxy)pyridine-3-carboxamide]
10 | ++ (“++” means between 3 uM and 10 uM) | CC(C)Oc1ccc(-c2cnc(C(=O)NS(=O)(=O)c3cccc(N)n3)c(N3[C@H](C)CC[C@@H]3C)n2)cn1 [Compound 1651, N-[(6-amino-2-pyridyl)sulfonyl]-3-[(2S,5R)-2,5-dimethylpyrrolidin-1-yl]-5-(6-isopropoxy-3-pyridyl)pyrazine-2-carboxamide]
11 | +++ (“+++” means <3 uM) | Cc1cc(C)c(Cn2nc(C(C)(C)C)cc2C(=O)NS(=O)(=O)c2ccc(N)cc2)c(C)c1 [Compound 1653, N-(4-aminophenyl)sulfonyl-5-tert-butyl-2-[(2,4,6-trimethylphenyl)methyl]pyrazole-3-carboxamide]
12 | +++ (“+++” means <3 uM) | CCOc1cccc2c1CN(Cc1ccc(C(C)C)cc1)C2(C)C(=O)NS(=O)(=O)c1cccc(F)n1 (stereo not drawn) [Compound 1655, 4-ethoxy-N-[(6-fluoro-2-pyridyl)sulfonyl]-2-[(4-isopropylphenyl)methyl]-1-methyl-isoindoline-1-carboxamide]
13 | ++ (“++” means between 3 uM and 10 uM) | CC1(C)CN(c2nccc(C(F)(F)F)c2C(=O)NS(=O)(=O)c2cccc(N)n2)C(C)(C)C1 [Compound 1658, N-[(6-amino-2-pyridyl)sulfonyl]-2-(2,2,4,4-tetramethylpyrrolidin-1-yl)-4-(trifluoromethyl)pyridine-3-carboxamide]
14 | +++ (“+++” means <3 uM) | CC(C)Oc1ccc(-c2ccc(C(=O)NS(=O)(=O)c3cccnc3N)c(N3C[C@@H](C)CC3(C)C)n2)cn1 [Compound 1660, N-[(2-amino-3-pyridyl)sulfonyl]-6-(6-isopropoxy-3-pyridyl)-2-[(4S)-2,2,4-trimethylpyrrolidin-1-yl]pyridine-3-carboxamide]
15 | ++ (“++” means between 3 uM and 10 uM) | CCOc1cccc2c1CN(Cc1ccc(OC(C)C)nc1)C2(C)C(=O)NS(=O)(=O)c1cccc(N)n1 (stereo not drawn) [Compound 1662, N-[(6-amino-2-pyridyl)sulfonyl]-4-ethoxy-2-[(6-isopropoxy-3-pyridyl)methyl]-1-methyl-isoindoline-1-carboxamide]

Row | Structure (SMILES) | EC30
16 | CCC(Oc1nc(-c2cc(F)cc(OCC(C)C)c2)ccc1C(=O)NS(=O)(=O)c1cccc(N)n1)C1CC1(C)C (stereo not drawn) [Compound 1639, N-[(6-amino-2-pyridyl)sulfonyl]-2-[1-(2,2-dimethylcyclopropyl)propoxy]-6-(3-fluoro-5-isobutoxy-phenyl)pyridine-3-carboxamide] | +++ (“+++” means <3 uM)
17 | CC(C)COc1cc(F)cc(-c2ccc(C(=O)NS(=O)(=O)C3CCOC3)c(N3C[C@@H](C)CC3(C)C)n2)c1 (stereo partly drawn) [Compound 1640, 6-(3-fluoro-5-isobutoxy-phenyl)-N-tetrahydrofuran-3-ylsulfonyl-2-[(4S)-2,2,4-trimethylpyrrolidin-1-yl]pyridine-3-carboxamide] | +++ (“+++” means <3 uM)
18 | CC(C)COc1cc(F)cc(-c2nc(N3C[C@@H](C)CC3(C)C)c(C(=O)NS(=O)(=O)c3cccc(N)n3)cc2Cl)c1 [Compound 1641, N-[(6-amino-2-pyridyl)sulfonyl]-5-chloro-6-(3-fluoro-5-isobutoxy-phenyl)-2-[(4S)-2,2,4-trimethylpyrrolidin-1-yl]pyridine-3-carboxamide] | +++ (“+++” means <3 uM)
19 | CC(C)COc1cc(F)cc(-c2ccc(C(=O)NS(=O)(=O)c3cccc(N)n3)c(OC3(C)CCC3)n2)c1 [Compound 1644, N-[(6-amino-2-pyridyl)sulfonyl]-6-(3-fluoro-5-isobutoxy-phenyl)-2-(1-methylcyclobutoxy)pyridine-3-carboxamide] | +++ (“+++” means <3 uM)
20 | Cc1cc(OCC(C)C)cc(-c2ccc(C(=O)NS(=O)(=O)c3cccc(N)n3)c(N3C[C@@H](C)CC3(C)C)n2)c1 [Compound 1646, N-[(6-amino-2-pyridyl)sulfonyl]-6-(3-isobutoxy-5-methyl-phenyl)-2-[(4 S)-2,2,4-trimethylpyrrolidin-1-yl]pyridine-3-carboxamide] | +++ (“+++” means <3 uM)
21 | CC(C)COc1cc(F)cc(-c2ccc(C(=O)NS(=O)(=O)N3CCC(O)C3)c(N3C[C@@H](C)CC3(C)C)n2)c1 (stereo partly drawn) [Compound 1648, 6-(3-fluoro-5-isobutoxy-phenyl)-N-(3-hydroxypyrrolidin-1-yl)sulfonyl-2-[(4S)-2,2,4-trimethylpyrrolidin-1-yl]pyridine-3-carboxamide] | +++ (“+++” means <3 uM)
22 | CC(=O)Nc1cccc(S(=O)(=O)NC(=O)c2ccc(-c3cc(F)cc(OCC(C)C)c3)nc2N2C[C@@H](C)CC2(C)C)n1 [Compound 1652, N-[(6-acetamido-2-pyridyl)sulfonyl]-6-(3-fluoro-5-isobutoxy-phenyl)-2-[(4S)-2,2,4-trimethylpyrrolidin-1-yl]pyridine-3-carboxamide] | +++ (“+++” means <3 uM)
23 | CC(C)COc1cc(F)cc(-c2ccc(C(=O)NS(=O)(=O)c3cccc(N)n3)c(OCCc3cccnc3)n2)c1 [Compound 1654, N-[(6-amino-2-pyridyl)sulfonyl]-6-(3-fluoro-5-isobutoxy-phenyl)-2-[2-(3-pyridyl)ethoxy]pyridine-3-carboxamide] | +++ (“+++” means <3 uM)
24 | Cc1cc(OCC(C)C)nc(-c2ccc(C(=O)NS(=O)(=O)c3cccc(N)n3)c(N3C[C@@H](C)CC3(C)C)n2)c1 [Compound 1656, N-[(6-amino-2-pyridyl)sulfonyl]-6-(6-isobutoxy-4-methyl-2-pyridyl)-2-[(4S)-2,2,4-trimethylpyrrolidin-1-yl]pyridine-3-carboxamide] | +++ (“+++” means <3 uM)
25 | CC(C)COc1cc(F)cc(-c2ccc(C(=O)NS(=O)(=O)c3cccc(N)n3)c(N3CC4CCC3CC4)n2)c1 [Compound 1657, N-[(6-amino-2-pyridyl)sulfonyl]-2-(3-azabicyclo[2.2.2]octan-3-yl)-6-(3-fluoro-5-isobutoxy-phenyl)pyridine-3-carboxamide] | +++ (“+++” means <3 uM)
26 | Cc1ccc(OCC(C)C)nc1-c1ccc(C(=O)NS(=O)(=O)c2cccc(N)n2)c(N2CC(C)CC2(C)C)n1 (stereo not drawn) [Compound 1659, N-[(6-amino-2-pyridyl)sulfonyl]-6-(6-isobutoxy-3-methyl-2-pyridyl)-2-(2,2,4-trimethylpyrrolidin-1-yl)pyridine-3-carboxamide] | +++ (“+++” means <3 uM)
27 | CC(C)COc1cc(F)cc(-c2ccc(C(=O)NS(=O)(=O)c3cccc(N)n3)c(OCC3CCCO3)n2)c1 (stereo not drawn) [Compound 1661, N-[(6-amino-2-pyridyl)sulfonyl]-6-(3-fluoro-5-isobutoxy-phenyl)-2-(tetrahydrofuran-2-ylmethoxy)pyridine-3-carboxamide] | +++ (“+++” means <3 uM)
